Experimental data as given in patent publication US8835375B2 (Applied Nanosystems B.V., priority 2006, dated 2014).
“Also recorded” adds a separate entry of the source. Values belong to the substance of their own block, whether it stands above or below them. Non-standard residues stand in square brackets, D forms with d. No end group written: not given here. Abu = CC[C@H](N)C(=O)O

Experiments:
angiotensinases = experiment: in the body; angiotensinases located in red blood cells and the vascular beds of most tissues; conditions: cited from earlier work
[1] = tested on: angiotensin-I converting enzyme (ACE); experiment: angiotensin-I converting enzyme (ACE) of the vascular endothelium; conditions: cited from earlier work
[2] = cited from earlier work
[3] = tested on: Angiotensin Converting Enzyme (ACE); experiment: Angiotensin Converting Enzyme (ACE) from Porcine kidney, SIGMA, 8 nM in 100 mM Tris-HCl, 300 mm NaCl, 10 μM Zn, pH 8.3; conditions: 37° C.
[4] = tested on: Angiotensin Converting Enzyme (ACE); experiment: Angiotensin Converting Enzyme (ACE) from Porcine kidney, SIGMA, 4 nM in 100 mM Tris-HCl, 300 mm NaCl, 10 μM Zn, pH 8.3; conditions: 37° C., up to 26 hour
[5] = plasma from rat under continuous intravenous infusion (1 mL/hour); conditions: Sprague Dawley rat, up to 120 min

Substance: Asp-Arg-Val-Tyr-Ile-His-Pro-Phe
fragment found (angiotensinases): angiotensin III (Arg-Val-Tyr-Ile-His-Pro-Phe; or Ang(2-8)

Substance: DRVYIHPFHL
cleaved bond [1]: Phe8-His9
fragment found [2]: Ang(1-9); also recorded: Ang(1-7); also recorded: Ang III (Ang(2-8)); also recorded: Ang IV (Ang(3-8))

not cleaved [3]: no breakdown observed
not cleaved [4]: no degradation after 26 hour
Substance: DRV[Abu]IHA
not cleaved [5]: intact peptide detected in the sample taken at 120 min; very stable
